Assay results reported in patent publication US10550080B2 (BRISTOL-MYERS SQUIBB COMPANY, priority 2016, dated 2020).

What was measured:
NaV1.7 = NaV1.7 (Homo sapiens (Human), UniProt Q15858); assay: Automated electrophysiology, IonWorks Barracuda population patch clamp, NaV1.7 current (inactivated-state protocol); format: cell-based; conditions: HEK 293 cells expressing NaV1.7; 600 sec compound incubation; read-out: NaV1.7 Barra IC50
Description: (§1) Automated Electrophysiology: Ion Works Barracuda population patch clamp (PPC). PPC measurements were performed using an IonWorks Barracuda instrument (Molecular Devices Corporation, Union City, Calif.) using either PatchPlate™ PPC substrates (Molecular Devices Corporation) with 64 apertures per well. The ability to average currents from 64 recordings from each well greatly improves data consistency and recording success rates in the measurement of NaV1.7 mediated ionic currents. Calculated leak current was digitally subtracted from the total cell NaV1.7 current for each sample point acquired.
(§2) NaV1.7 currents were elicited by a voltage clamp protocol designed to bias the NaV1.7 channels to their inactivated state as follows. From holding potential of −60 mV cells were briefly hyperpolarized to −100 mV for 1.25 sec, then stepped to −20 mV for 20 sec to inactivate the channels. This was followed by a relatively brief hyperpolarization to −100 mv for 300 ms, then a 20 msec test pulse to −20 mV to elicit the NaV1.7 current used to measure the pharmacology of all test compounds. Compounds were incubated for 600 sec between the pre- and post-compound reads. The external recording solution used was (in mM) 137 NaCl, 4 KCl, 1 MgCl2, 1.8 CaCl2, 10 Hepes, 10 glucose, pH to 7.4 with NaOH, and the internal solution used was (in mM) 100 K-gluconate, 40 KCl, 3.2 zMgCl2, 5 EGTA, 10 HEPES pH to 7.2 with KOH. The same solutions were used to record NaV1.5 currents, with the following voltage clamp protocol. NaV1.5 currents were elicited by a voltage clamp protocol designed to bias the NaV1.5 channels to their inactivated state as follows. From holding potential of −40 mV cells were briefly hyperpolarized to −100 mV for 300 ms, then stepped to −10 mV for 20 sec to inactivate the channels. This was followed by a relatively brief hyperpolarization to −100 mv for 30 ms, then a 20 msec test pulse to −10 mV to elicit the NaV1.5 current used to measure the pharmacology of all test compounds.
(§3) HEK 293 cells expressing NaV1.7 and NaV1.5 channels, were used (Essen Biosciences, Ann Arbor, Mich.). Cells were cultured in T-175 flasks and passaged every 2 to 3 days at 1:3 to 1:6 seeding density dilutions. Cells were grown to 70% to 90% confluence in a flask and removed from the incubator (37° C., 5% CO2) 1 to 3 days after plating. Growth medium was aspirated from the culture flasks. Cells were gently rinsed with 10 ml of PBS (Catalog number: 14190144, Gibco) to remove residual media. Next a total of 2 mL TrypLE (Gibco) solution was added, and the flasks containing cells were sat for 3 min at RT, after which, the cells became visibly rounded and were easily dislodged from the bottom of the flask with a few brief taps on a solid surface. A total of 8 mL of media was added to the flask to inactivate the TrypLE, and the mixture was centrifuged at 910 rpm for 4 min. The cell supernatant was decanted, and the cell pellets were resuspended in 5-6 mL of external solution followed by gentle triturations using a 10 ml pipette, and transferred to a 15 ml conical tube and immediately brought to the IW Barracuda instrument.
(§4) Peak membrane currents were analyzed with IW Barracuda software and exported to Excel for further analysis. Concentration response curve fitting was performed with BMS in-house software. IC50 values were obtained by fits of the Hill equation to the average percent inhibition data plotted versus compound concentration. […] Results are reported in Table 1 (NaV1.7 Barra IC50 in nM and NaV1.5 Barra IC50 in nM).

hNaV1.7 = hNaV1.7 (Homo sapiens (Human), UniProt Q15858); assay: Ligand Binding Assay (LBA), radioligand displacement on hNaV1.7 HEK293 cell membranes; conditions: 0.5 nM [3H] radioligand, 24 hours at room temperature; read-out: NaV1.7 LBA IC50
hNaV1.7, sequence (Q15858 whole entry): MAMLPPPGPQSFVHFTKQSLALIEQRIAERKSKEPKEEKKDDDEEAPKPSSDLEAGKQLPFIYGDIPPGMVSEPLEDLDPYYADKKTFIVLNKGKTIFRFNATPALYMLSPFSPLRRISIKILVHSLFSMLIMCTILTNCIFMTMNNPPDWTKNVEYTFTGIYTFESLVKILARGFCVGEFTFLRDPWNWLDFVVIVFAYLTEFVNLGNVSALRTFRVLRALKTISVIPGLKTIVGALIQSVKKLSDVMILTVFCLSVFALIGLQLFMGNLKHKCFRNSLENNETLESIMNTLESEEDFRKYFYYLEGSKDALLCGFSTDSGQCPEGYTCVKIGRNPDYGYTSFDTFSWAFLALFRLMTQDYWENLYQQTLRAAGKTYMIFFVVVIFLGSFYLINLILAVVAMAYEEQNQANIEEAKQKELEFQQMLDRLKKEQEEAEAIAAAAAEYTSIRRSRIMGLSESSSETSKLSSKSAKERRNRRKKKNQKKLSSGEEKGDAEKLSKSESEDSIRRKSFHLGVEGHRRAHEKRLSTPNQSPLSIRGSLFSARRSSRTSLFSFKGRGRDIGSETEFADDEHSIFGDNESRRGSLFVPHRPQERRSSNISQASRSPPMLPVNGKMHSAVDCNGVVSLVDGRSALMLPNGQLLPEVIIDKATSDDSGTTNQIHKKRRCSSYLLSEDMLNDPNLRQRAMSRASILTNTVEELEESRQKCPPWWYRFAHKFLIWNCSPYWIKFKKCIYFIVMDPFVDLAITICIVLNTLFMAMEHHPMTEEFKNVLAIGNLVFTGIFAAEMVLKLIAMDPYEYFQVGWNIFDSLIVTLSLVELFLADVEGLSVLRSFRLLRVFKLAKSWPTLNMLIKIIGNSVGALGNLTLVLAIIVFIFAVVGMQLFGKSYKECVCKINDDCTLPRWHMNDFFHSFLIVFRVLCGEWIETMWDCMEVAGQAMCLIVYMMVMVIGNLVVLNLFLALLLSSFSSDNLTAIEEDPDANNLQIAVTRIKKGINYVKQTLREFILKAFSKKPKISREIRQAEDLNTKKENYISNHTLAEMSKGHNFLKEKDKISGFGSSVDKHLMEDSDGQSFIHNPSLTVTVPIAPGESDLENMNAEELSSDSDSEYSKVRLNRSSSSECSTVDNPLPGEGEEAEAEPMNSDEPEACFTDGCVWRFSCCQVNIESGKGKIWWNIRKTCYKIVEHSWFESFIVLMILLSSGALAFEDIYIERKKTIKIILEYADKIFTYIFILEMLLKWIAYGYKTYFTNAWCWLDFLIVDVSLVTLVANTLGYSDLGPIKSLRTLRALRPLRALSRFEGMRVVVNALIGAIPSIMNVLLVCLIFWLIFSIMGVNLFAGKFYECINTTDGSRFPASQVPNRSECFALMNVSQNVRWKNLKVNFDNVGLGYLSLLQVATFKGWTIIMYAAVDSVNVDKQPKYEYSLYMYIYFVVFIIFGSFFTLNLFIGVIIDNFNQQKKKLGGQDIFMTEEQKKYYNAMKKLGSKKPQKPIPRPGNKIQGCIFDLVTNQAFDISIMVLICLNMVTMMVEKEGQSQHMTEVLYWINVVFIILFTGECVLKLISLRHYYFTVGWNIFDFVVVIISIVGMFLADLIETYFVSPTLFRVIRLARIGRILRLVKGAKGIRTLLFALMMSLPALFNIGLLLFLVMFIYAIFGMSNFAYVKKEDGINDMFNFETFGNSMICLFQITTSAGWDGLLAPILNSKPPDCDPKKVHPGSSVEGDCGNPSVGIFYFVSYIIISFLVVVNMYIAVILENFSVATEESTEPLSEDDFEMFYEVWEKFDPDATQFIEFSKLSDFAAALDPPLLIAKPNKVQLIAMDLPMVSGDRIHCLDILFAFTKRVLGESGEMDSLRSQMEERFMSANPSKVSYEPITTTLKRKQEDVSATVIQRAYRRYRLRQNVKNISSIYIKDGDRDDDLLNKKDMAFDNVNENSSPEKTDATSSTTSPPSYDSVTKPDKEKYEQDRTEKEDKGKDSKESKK
Description: Ligand Binding Assay (LBA): hNaV1.7 binding affinities were determined with a filtration binding assay using purified membranes from HEK293 cells stably expressing hNaV1.7. HEK293 cells from a 10-stack cell culture flask (approximately 10^10 cells) were dissociated, frozen, and stored at −80° C. To prepare membranes, the frozen cell pellet was thawed and suspended in 6 ml hypotonic lysis buffer (50 mM HEPES, 0.1% mammalian protease inhibitor cocktail). 1 ml of resuspended cells was added to an additional 6 ml of lysis buffer and homogenized with 30 strokes of a tight pestle in a glass homogenizer. Homogenate was centrifuged at 1000×g for 10 minutes at 4° C. and the resulting supernatant was further centrifuged at 38,500×g for 60 minutes at 4° C. The resulting pellet was resuspended in binding buffer (50 mM HEPES, 130 mM NaCl, 5.4 mM KCl, 0.8 mM MgCl2, 5 mM glucose, pH 7.4) and needle homogenized with a 25 gauge needle. Protein concentration was determined with a BCA protein assay. Purified membranes were aliquoted, flash frozen in an ethyl alcohol dry ice bath, and stored at −80° C. To measure displacement of a radiolabeled ligand, 50 μg of purified hNaV1.7 HEK cell membranes were incubated with test compounds (eight concentrations, in duplicate) and 0.5 nM [3H] labeled radioligand in a 96 well plate for 24 hours at room temperature on a shaker. The total binding reaction volume was 250 μl, consisting of 200 μl purified hNaV1.7 HEK cell membranes, 25 μl test compound, and 25 μl radioligand. Non-specific binding was defined by 20 μM of a reference hNaV1.7 inhibitor. Binding reactions were terminated by filtration through GF/B filters presoaked in 0.5% polyethyleneamine. Filters were washed 5 times with 2 ml each of 4′C wash buffer (50 mM Tris-HCl, pH 7.4 at 4° C.). Bound radioactivity captured on the filters was counted on a liquid scintillation counter. Specific binding, expressed as % inhibition, was fit with Graphpad Prism software to determine binding IC50 values. Results are reported in Table 1 (NaV1.7 LBA IC50 in nM).

NaV1.5 = NaV1.5 (Homo sapiens (Human), UniProt Q14524); assay: Automated electrophysiology, IonWorks Barracuda population patch clamp, NaV1.5 current (inactivated-state protocol); format: cell-based; conditions: HEK 293 cells expressing NaV1.5; read-out: NaV1.5 Barra IC50
NaV1.5, sequence (Q14524 whole entry): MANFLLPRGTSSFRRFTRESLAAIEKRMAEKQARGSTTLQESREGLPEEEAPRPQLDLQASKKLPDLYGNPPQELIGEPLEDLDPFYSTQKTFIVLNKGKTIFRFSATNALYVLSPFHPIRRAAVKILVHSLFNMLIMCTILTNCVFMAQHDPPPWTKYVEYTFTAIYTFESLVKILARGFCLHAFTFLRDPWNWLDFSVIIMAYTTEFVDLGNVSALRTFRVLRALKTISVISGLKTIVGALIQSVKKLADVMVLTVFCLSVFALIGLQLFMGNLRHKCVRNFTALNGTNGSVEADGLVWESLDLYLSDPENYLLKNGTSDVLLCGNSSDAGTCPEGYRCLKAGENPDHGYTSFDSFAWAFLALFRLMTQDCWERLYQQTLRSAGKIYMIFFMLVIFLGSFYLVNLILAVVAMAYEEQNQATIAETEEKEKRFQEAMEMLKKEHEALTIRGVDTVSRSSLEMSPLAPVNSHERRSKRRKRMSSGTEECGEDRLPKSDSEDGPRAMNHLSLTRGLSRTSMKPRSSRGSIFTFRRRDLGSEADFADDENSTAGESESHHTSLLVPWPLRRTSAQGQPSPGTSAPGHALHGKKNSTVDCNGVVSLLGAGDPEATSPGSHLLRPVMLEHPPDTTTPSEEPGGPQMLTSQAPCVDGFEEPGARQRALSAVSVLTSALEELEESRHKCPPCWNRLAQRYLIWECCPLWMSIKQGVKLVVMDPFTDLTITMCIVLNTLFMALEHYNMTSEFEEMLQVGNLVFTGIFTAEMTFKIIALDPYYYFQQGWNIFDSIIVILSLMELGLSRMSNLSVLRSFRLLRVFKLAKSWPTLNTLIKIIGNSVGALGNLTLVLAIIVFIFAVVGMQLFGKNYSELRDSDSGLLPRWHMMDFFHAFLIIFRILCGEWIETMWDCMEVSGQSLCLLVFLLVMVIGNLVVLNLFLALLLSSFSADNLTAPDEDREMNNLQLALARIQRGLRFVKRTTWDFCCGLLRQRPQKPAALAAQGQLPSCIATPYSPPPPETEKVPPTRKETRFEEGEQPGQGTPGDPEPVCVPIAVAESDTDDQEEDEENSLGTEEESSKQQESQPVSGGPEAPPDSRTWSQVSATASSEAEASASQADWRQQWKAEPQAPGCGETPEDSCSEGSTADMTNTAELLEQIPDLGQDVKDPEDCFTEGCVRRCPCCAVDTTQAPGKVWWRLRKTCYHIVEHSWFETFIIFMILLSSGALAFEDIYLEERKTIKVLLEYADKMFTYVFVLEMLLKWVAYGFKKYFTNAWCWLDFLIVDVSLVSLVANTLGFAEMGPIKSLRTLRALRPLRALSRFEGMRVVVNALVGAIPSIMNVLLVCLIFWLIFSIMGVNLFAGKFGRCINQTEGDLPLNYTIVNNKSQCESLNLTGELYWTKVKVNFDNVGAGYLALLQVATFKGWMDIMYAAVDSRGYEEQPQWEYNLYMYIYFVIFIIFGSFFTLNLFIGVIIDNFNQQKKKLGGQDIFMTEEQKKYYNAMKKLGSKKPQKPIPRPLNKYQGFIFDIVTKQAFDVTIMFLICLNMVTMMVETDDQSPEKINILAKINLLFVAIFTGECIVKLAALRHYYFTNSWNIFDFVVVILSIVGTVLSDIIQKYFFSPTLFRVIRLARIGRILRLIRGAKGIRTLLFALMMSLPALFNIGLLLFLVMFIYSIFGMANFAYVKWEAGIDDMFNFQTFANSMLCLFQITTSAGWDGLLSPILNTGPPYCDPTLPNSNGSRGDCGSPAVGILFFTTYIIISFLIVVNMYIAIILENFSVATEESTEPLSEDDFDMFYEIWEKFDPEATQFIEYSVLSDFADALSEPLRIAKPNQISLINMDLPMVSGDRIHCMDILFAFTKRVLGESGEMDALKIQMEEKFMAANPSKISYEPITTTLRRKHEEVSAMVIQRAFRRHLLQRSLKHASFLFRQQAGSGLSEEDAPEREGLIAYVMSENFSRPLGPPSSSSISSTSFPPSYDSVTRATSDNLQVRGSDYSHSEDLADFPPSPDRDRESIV
Description: as §1, §2, §3, §4

NaV1.7, sequence (Q15858 whole entry): as the sequence (Q15858 whole entry) above

Row | Structure (SMILES) | IC50 (NaV1.7) [nM] | IC50 (hNaV1.7) [nM] | IC50 (NaV1.5) [nM]
1 | CC(C)COc1ncc(-c2cn(C)c3cc(C(=O)NS(=O)(=O)C(C)C)ccc23)cc1Cl [Example 37, 3-(5-Chloro-6-isobutoxypyridin-3-yl)-N-(isopropylsulfonyl)-1-methyl-1H-indole-6-carboxamide] | 458 | 207 | 14000
2 | Cn1cc(-c2cnc(OCC3CC3)c(Cl)c2)c2ccc(C(=O)NS(=O)(=O)C3CC3)cc21 [Example 35, 3-(5-Chloro-6-(cyclopropylmethoxy)pyridin-3-yl)-N-(cyclopropylsulfonyl)-1-methyl-1H-indole-6-carboxamide] | 86 | 52 | 15100
3 | Cc1cccc(-c2cn(C)c3cc(C(=O)NS(C)(=O)=O)ccc23)c1 [Example 15, 1-Methyl-N-(methylsulfonyl)-3-(m-tolyl)-1H-indole-6-carboxamide] | 375 | 943 | > 30000
4 | Cn1cc(-c2ccc(C(F)(F)F)cc2)c2cc(F)c(C(=O)NS(=O)(=O)C3CC3)cc21 [Example 47] | 16 | 39 | 3820
5 | Cn1cc(-c2ccccc2)c2ccc(C(=O)NS(C)(=O)=O)cc21 [Example 5, 1-Methyl-N-(methylsulfonyl)-3-phenyl-1H-indole-6-carboxamide] | 743 | 7270 | > 30000
6 | Cn1cc(-c2ccc(C(F)(F)F)cc2)c2ccc(C(=O)NS(=O)(=O)c3cccs3)cc21 [Example 20, 1-Methyl-N-(thiophen-2-ylsulfonyl)-3-(4-(trifluoromethyl)phenyl)-1H-indole-6-carboxamide] | 419 | 361 | 3860
7 | CC(C)COc1ncc(-c2cn(C)c3cc(C(=O)NS(=O)(=O)C4CC4)ccc23)cc1Cl [Example 24, 3-(5-Chloro-6-isobutoxypyridin-3-yl)-N-(cyclopropylsulfonyl)-1-methyl-1H-indole-6-carboxamide] | 294 | 22 | 12000
8 | Cn1cc(-c2ccc(C(F)(F)F)cc2)c2ccc(C(=O)NS(C)(=O)=O)cc21 [Example 1, 1-Methyl-N-(methylsulfonyl)-3-(4-(trifluoromethyl)phenyl)-1H-indole-6-carboxamide] | 85 | 422 | 19600
9 | Cn1cc(-c2ccc(OC(F)(F)F)cc2)c2ccc(C(=O)NS(C)(=O)=O)cc21 [Example 4, 1-Methyl-N-(methylsulfonyl)-3-(4-(trifluoromethoxy)phenyl)-1H-indole-6-carboxamide] | 80 | 243 | 18300
